Measured values from US5670501A, “N-substituted 9-alkyladenines” (Discovery Therapeutics, Inc., priority 1994, dated 1997).

Assays:
[1] = target: T1, adenosine A1 receptor (Bos taurus, UniProt P28190); assay: Receptor affinity (radioligand binding), A1, [3H]CHA; set-up: species or system bovine; conditions: for Ki: [3H]CHA, room temperature, 2 hours, tissues listed: bovine caudate, guinea pig cortex, guinea pig striatum (only Example 13 marked guinea pig); for Selectivity Ratio (A2 Ki /A1 Ki): radioligand binding
T1 construct: were homogenized with a Brinkman polytron and the membranes were collected by centrifugation; from tissue; host or cells: bovine caudate membranes
T1 sequence (P28190 1-326): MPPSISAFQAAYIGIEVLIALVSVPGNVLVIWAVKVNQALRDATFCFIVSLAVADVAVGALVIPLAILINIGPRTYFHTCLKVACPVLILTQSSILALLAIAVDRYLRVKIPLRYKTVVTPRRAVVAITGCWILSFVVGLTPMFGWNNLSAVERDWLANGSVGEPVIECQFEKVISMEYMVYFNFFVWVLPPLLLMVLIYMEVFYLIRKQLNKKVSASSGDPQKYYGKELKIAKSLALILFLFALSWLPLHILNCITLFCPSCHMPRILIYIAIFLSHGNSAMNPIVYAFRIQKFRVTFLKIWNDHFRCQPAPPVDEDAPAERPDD
Protocol: (§1) 1. Receptor Affinity Experiments (Radioligand Binding)
(§2) Tissues (bovine caudate, guinea pig cortex, guinea pig striatum) were homogenized with a Brinkman polytron and the membranes were collected by centrifugation at 40,000×g at 4° C. for 10 min. The membranes were washed by resuspension and centrifugation, resuspended, and incubated in the presence of 1 U/ml adenosine deaminase for 15-30 min. at 37° C. The membranes were diluted, centrifuged once, and resuspended to a final concentration of 0.5-2 mg protein/ml. Adenosine deaminase (0.1 U/ml) was included in the final resuspension. Assays were initiated by addition of membranes. The compounds of the present invention were subjected to the following experimental conditions: A1 determinations/incubated with [^3 H]CHA at room temperature for 2 hours, A2 determinations/incubated with [^3 H]NECA at room temperature for 1 hour. Assays were terminated by filtration, and the filters were counted in scintillation counters.

[2] = target: adenosine A2 receptor; assay: Receptor affinity (radioligand binding), A2, [3H]NECA; set-up: species or system bovine / guinea pig; conditions: room temperature, 1 hour
Protocol: as §1, §2

[3] = target: T2, adenosine A1 receptor (Cavia porcellus, UniProt P47745); assay: A1 in vitro functional test: negative inotropic response, left atria, antagonism of NECA; type: cell-based, guinea pig; conditions: for Kb: guinea pig left atria, electrically evoked twitch, NECA agonist, 31° C, Schild plot, read-out: A1 KB (antagonist dissociation constant); for Selectivity Ratio (A2 KB /A1 KB): functional
T2 construct: from tissue; host or cells: isolated guinea pig left atria
T2 sequence (P47745 1-326): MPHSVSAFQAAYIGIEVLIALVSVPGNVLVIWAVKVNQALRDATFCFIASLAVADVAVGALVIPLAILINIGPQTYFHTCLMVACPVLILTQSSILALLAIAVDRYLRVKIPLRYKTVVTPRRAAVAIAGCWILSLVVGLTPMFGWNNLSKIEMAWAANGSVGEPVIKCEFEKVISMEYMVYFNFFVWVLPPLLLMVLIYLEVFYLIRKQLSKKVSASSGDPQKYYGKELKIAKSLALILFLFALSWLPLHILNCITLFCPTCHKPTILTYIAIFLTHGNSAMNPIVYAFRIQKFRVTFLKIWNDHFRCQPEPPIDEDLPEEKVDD
Protocol: 2. Adenosine--A1 /A2 In Vitro Functional Tests
(A1 Assay: Negative inotropic response)-Guinea pig left atria were placed in organ baths filled with Krebs Henseleit solution gassed with 95% O2 and 5% CO2 and maintained at a temperature of 31° C. An initial resting tension of 1 gm. was placed on each tissue, which was allowed to equilibrate. Atria were stimulated electrically to produce twitch responses. A dose-response curve for the inhibition of the electrically-evoked twitch response was obtained by cumulative addition of the adenosine agonist […]. After the washout of the tissue, a fixed concentration of test compound was added and the tissue allowed to equilibrate for 1 hr. before cumulative additions of the adenosine agonist 5'-N-ethylcarboxamidoadenosine (NECA) to generate a new dose response curve. This procedure was repeated with different fixed concentrations of test compounds to generate a family of dose response curves. Schild plots were constructed from the resultant concentration-effect curves, and KB (antagonist dissociation constant) values were obtained. The results (see Table VII) are expressed as KB values (concentration of test compound such that one-half of the tissue adenosine receptor population is occupied by the test compound).

Structure (SMILES)	Ki [1] [nM]	Selectivity Ratio (A2 Ki /A1 Ki) [1]	Ki [2] [nM]	Kb [3] [nM]	Selectivity Ratio (A2 KB /A1 KB) [3]
Cn1c(Br)nc2c(N[C@H]3C[C@H]4CC(=O)[C@@H]3C4)ncnc21 (relative stereo) [Example 19]	3.47	100	347	115	–
Cn1c(N2CCCCC2)nc2c(N[C@H]3C[C@H]4CC[C@@H]3C4)ncnc21 (relative stereo) [Example 20, (±)-N^6-(endo-2'-norbornyl)-8-piperidinyl-9-methyladenine]	191	> 52	> 10000	240	–
Cn1cnc2c(N[C@H]3C[C@@H]4C[C@H]3C[C@@H]4O)ncnc21 (relative stereo) [Example 21, (±)-N^6-[endo-2'-(endo-5'-hydroxy)-norbornyl]-9-methyladenine]	19.1	165	3160	309	324
Cn1cnc2c(N[C@H]3C[C@@H]4C[C@H]3C[C@H]4O)ncnc21 (relative stereo) [Example 22]	97.7	323	31600	2950	–
Cn1cnc2c(N[C@H]3C[C@@H]4C[C@H]3[C@@H](O)C4)ncnc21 (relative stereo) [Example 23]	85.1	371	31600	3800	–
Cn1cnc2c(N[C@H]3C[C@@H]4C[C@H]3[C@H](O)C4)ncnc21 (relative stereo) [Example 24]	141	152	21400	4680	–
Cn1cnc2c(N[C@H]3C[C@H]4C[C@@H]3C[C@@H]4O)ncnc21 (relative stereo) [Example 30, (±)-N^6-[exo-2',(exo-5'-hydroxy)-norbornyl]-9-methyladenine]	363	1,176	42700	1310	–
Cn1cnc2c(N[C@H]3C[C@H]4C[C@@H]3C[C@H]4O)ncnc21 (relative stereo) [Example 31]	105	137	14400	4070	–
Cn1cnc2c(N[C@H]3C[C@H]4C[C@@H]3[C@@H](O)C4)ncnc21 (relative stereo) [Example 32]	51.3	> 195	> 10000	6030	–
Cn1cnc2c(N[C@@H]3C[C@H]4C[C@@H]3c3ccc(O)cc34)ncnc21 (relative stereo) [Example 36, (±)-N^6-[endo-2'-(5',6'-(6"-hydroxy)benzo)norbornyl]-9-methyladenine]	2	316	631	275	–
Cn1cnc2c(N[C@H]3C[C@H]4C[C@@H]3c3ccccc34)ncnc21 (relative stereo) [Example 38]	17.8	331	5890	1580	–
Cn1cnc2c(N[C@@H]3C[C@H]4C[C@@H]3c3ccccc34)ncnc21 (relative stereo) [Example 39]	468	33	15500	28800	–
COc1ccc2c(c1)[C@H]1C[C@H](Nc3ncnc4c3ncn4C)[C@@H]2C1 (relative stereo) [Example 40]	8.91	631	5620	1120	–
COc1ccc2c(c1)[C@@H]1C[C@H]2[C@H](Nc2ncnc3c2ncn3C)C1 (relative stereo) [Example 41]	209	> 48	> 10000	64600	–
Cn1cnc2c(N[C@@H]3C[C@@H]4CC[C@H]3C4)ncnc21 (relative stereo) [Example 49, N^6-(endo-2-norbornyl)-9-methyladenine, reference compound]	10	617	6170	550	36
